The structures appear in SMILES notation. A value given as a limit tells only on which side of the number the result lay.

The molecule `CCCCN(CCCC)S(=O)(=O)c1ccc(-n2oc(C)cc2=O)c([N+](=O)[O-])c1` gave a melting point of 84 to 86 °C.
On to `O=C1Nc2ccc([N+](=O)[O-])cc2C2(c3ccccc3)OCCN12` (stereo not given), for which the melting point lay in the range of 275 to 276 °C.
Next, `CCc1[nH]n(C2CCCC2)c2nc(-c3ccc4c(c3)CCO4)nc(=O)c1-2`: 253 to 254 °C; `CCOC(=O)C1=C(N(C)C)N=C(C)C(C(=O)OCC)C1c1ccccc1C#N` (stereo not given): 129 °C; `CC(C)CCC1(c2ccccc2)CC(O)=C(Sc2ccccc2C(C)C)C(=O)O1` (stereo not given): 64 to 66 °C.
As for `COC(=O)c1cc(N)cs1`, the figure is 76 to 78 °C; as for `Cc1oc(-c2ccccc2)nc1COc1ccc(COc2ncccc2CO)cc1`, 139 to 140 °C; as for `Cc1nc(-c2ccccc2)cc(-c2cccc(C#N)c2)c1C(=O)NCCN1CCOCC1`, 166 to 168 °C.
Next, `CCc1nc2c(N)nc(-c3ccncc3)nc2[nH]1`: greater than 300 °C; `COc1c(C)c(C(=O)c2ccc3c(c2)c(=O)n(CC(=O)N(C)C)c(=O)n3C)n2ccccc12`: 276 °C.
`CCSc1c(Cl)nc(Cl)nc1Cl` came in with a melting point of 62 to 64 °C.
`COc1ccccc1Oc1ccc(Cl)cc1C(=O)O` displayed a melting point of 115 to 118 °C.
In turn, `Nc1ccc(C(F)(F)F)cc1S(N)(=O)=O` showed a melting point of 142 to 143 °C.
For `CC(NC(=O)Cc1cc(F)cc(F)c1)C(=O)NC1CCCCCNC(=O)C1` (stereo not given), the melting point is greater than 220 °C.
As for `COc1cc(C(=O)c2c(C)c(OCCO)c3ccccn23)ccc1[N+](=O)[O-]`, the figure is 142 °C; as for `CCOc1n[nH]c(=O)n1C`, 126 °C.
Next, `CCOC(=O)C1CCc2c(sc3nc(CCl)c(Cl)c(-c4ccc(OC)cc4)c23)C1` (stereo not given): 113 to 114 °C; `c1cc(N2CCOCC2)ccn1`: 93 to 95 °C.
Next, `CC(C)(C)C(=O)Nc1ccc(F)c(Oc2ccc(C3CC(=O)NC(=O)C3)cc2)c1F`: 172 °C; `CC(C)(C)OC(=O)CC(NC(=O)C1CCCN2C(=O)CCC(NC(=O)c3ccccc3)C(=O)N12)C(O)COCc1c(Cl)cccc1Cl` (stereo not given): 106 to 110 °C.
`CN(C(=O)c1cc2ccccc2c(-c2ccccc2Cl)n1)C1CCCCC1` yielded a melting point of 131 °C.
Next, `C[C@@H]1CN(C(=O)c2cc3c(C(=O)OC(C)(C)C)ncn3c3ccccc23)C[C@H](C)N1`: 233 to 234 °C.
As for `CCCS(=O)c1sc(C(N)=O)c2c1-c1c(cnn1C)CC2` (stereo not given), the figure is 194 to 195 °C.
As for `O=C(O)COc1c(-c2cccc(Cl)c2)cc(C(=O)NCCCCCCc2ccccc2)cc1-c1cccc(Cl)c1`, the figure is 178 to 181 °C; as for `CC(C)(C)NCC(O)COc1ccc2c(=O)cc(-c3ccc(O)c(O)c3)oc2c1` (stereo not given), 165 °C.
Take `Cc1cc(C)c(C)c(-c2cc3cnc(N)nc3nc2NC(=O)NC(C)(C)C)c1C`: the melting point was greater than 300 °C.
As for `CC(C)(C)c1nc(C=CC(=O)COc2ccccc2)nc(C(C)(C)C)c1O`, the figure is 98 to 100 °C.
Next, `O=S(=O)(Cc1cn(C23CC4CC(CC(C4)C2)C3)nn1)c1cc(Cl)ccc1Cl`: 198 to 199 °C.
As for `COC(=O)C=Cc1cc(Cl)ccc1C(=O)OC`, the figure is 87 to 89 °C.
In the case of `COc1ccc2c(c1)CCN(C(C)=O)CC2`, the melting point is 89 to 90 °C.
As for `N#Cc1cnc2c(sc3ccccc32)c1Nc1ccc(Cl)cc1F`, the figure is 250 to 251 °C; as for `CN(C)C=Nc1c(Cl)cc(NCc2ccc(N(C)C)cc2Br)cc1Cl`, 135 to 137 °C; as for `Cc1nn(-c2cccnc2)cc1C(=O)O`, 200 to 210 °C.
As for `CC1(C)Cc2c(sc(N)c2C(N)=O)C(C)(C)C1`, the figure is 140 to 145 °C; as for `Nc1cccc2nc(=O)cccc12`, 175 to 178 °C.
`Fc1cc(F)c(-c2c(Cl)nc3nccnc3c2Cl)c(F)c1` gave a melting point of 139 to 141 °C.
Next, `COc1cc(C)c(OC)c(OC)c1-c1csc(NC(=O)c2cc3ccccc3[nH]2)n1`: 200 °C; `CC1=C(C(=O)N(C)Cc2ccc(Cl)cc2Cl)SC2=NCCN21`: 55 to 60 °C; `CC(C)(C)c1cc(C(=O)Nc2cccc(SCc3cncc4ccccc34)c2)ccc1O`: 205 to 210 °C.
Molecule `COc1cc(C(=O)NC2CC(C)(C)N(C)C(C)(C)C2)ccc1-c1nc2cc(Cl)c(Cl)cc2n1C` gave a melting point of 178 to 180 °C.
`COc1ccc(C=NCC(OC)OC)cc1OC`: the melting point is 50 to 52 °C.
Next, `CC12CCC(=O)C=C1CCC1C2CCC2(C)C(C(=O)C3CCCCC3)CCC12` (stereo not given): 159 to 161 °C; `CCOC(=O)CCNCC(O)COc1cccc(OC)c1` (stereo not given): 72 °C.
Next, `C#CC[C@H](c1nc2cccnc2c(=O)n1Nc1ccccc1)N(CCCN)C(=O)c1cc(F)c(F)c(F)c1F`: 180 to 182 °C; `Nc1cccc(C(=O)Nc2ccc(-c3ccc(C(=O)N4CCN5CCC4CC5)o3)cc2)c1`: 249 to 252 °C.
`O=C1CCC(N2Cc3c(OCc4ccc(CN5CCNCC5)cc4)cccc3C2=O)C(=O)N1` (stereo not given) gave a melting point of 196 to 198 °C.
As for `CC(c1ccc2ncccc2c1)n1nnc2ccc(-c3ccc(C(N)=O)c(Cl)c3)nc21` (stereo not given), the figure is 140 to 143 °C; as for `CC(C)N1C(=O)C(C)(C)N=C(c2ccccc2Cl)c2cc(N)ccc21`, 243 to 244 °C.
Next, `Cc1ccc2nc(CCl)n3cnnc3c2c1`: 175 °C.
As for `CCOC(=O)c1cc(O)c2cc3c(O)cc(C(=O)OCC)nc3c(N3CCCCCC3)c2n1`, the figure is 301 to 302 °C; as for `c1ccc(N2CCN(CCc3cc4ccccc4[nH]3)CC2)cc1`, 184 to 186 °C.
On to `Cc1sccc1-c1nc2c3ccsc3ccn2c1N`, for which the melting point was in the range of 161 to 162 °C.
Next, `COC(=O)c1nc(Oc2ccccc2)c(Cl)c(N)c1Cl`: 88 to 90 °C; `COC(=O)N(N=Nc1cc(C(F)(F)F)ccc1C#N)c1cc(C(F)(F)F)ccc1C#N`: 88 to 90 °C.
Consider `Cc1ccc2c(=O)n3nccc3[nH]c2n1`, for which the melting point was greater than 300 °C.
For the molecule `C=CCN(c1nc(N2CCN(C(=O)n3ccnc3)CC2)nc(N(CC=C)C2CCCCC2)n1)C1CCCCC1`, the melting point was in the range of 132 to 135 °C.
As to `CN1CCN(C(=O)c2cnc(S)n2Cc2cc(F)cc(F)c2)CC1`, the melting point lay within 243 to 244 °C.
As for `Cc1cc(NCCO)c2nn(C)c(C)c2n1`, the figure is 186 to 189 °C.
Next, `Cc1ccc(-c2ccccc2C2=NC(C)(C)CO2)cc1`: 56 to 59 °C.
Turning to `CC(C)NC1=Nc2cccnc2SC1`, the melting point lay within 135 to 139 °C.
Next, `CC(C)N1CC(=O)C(C#N)=C1N`: 285 to 290 °C; `Cc1sc(I)c(C)c1CO`: 118 to 120 °C; `CC(=O)OC1CSC(Oc2cncc(-c3ccoc3)c2)C(OC(C)=O)C1OC(C)=O` (stereo not given): 127 °C.
As for `O=c1c2c(O)cccc2[nH]c2c([N+](=O)[O-])ccc(Cl)c12`, the figure is 265 to 267 °C.
As for `CC(=O)Nc1c(C)ccc([N+](=O)[O-])c1C`, the figure is 171 to 173 °C; as for `CS(=O)(=O)c1cn(CC2=NCCN2)c2ccc(N)cc12`, 215 to 217 °C; as for `COc1ccc(N/C=C2\C(=O)NC(=O)c3ccccc32)cc1`, 150 to 151 °C.
The molecule `Cc1cccc2c1[C@@H]1CN(C)CC[C@@H]1CC2=O` (relative stereo) showed a melting point greater than 220 °C.
The molecule `CCCN(CCC)C1CCC2=C(CCCC2=NO)C1` (stereo not given) came in with a melting point of 99 to 102 °C.
In turn, `CN1CCN(C(=O)c2ccc3c([N+](=O)[O-])c(O)c(O)cc3c2)CC1` displayed a melting point greater than 360 °C.
Next, `COc1cc(NC(=O)Nc2ccc(C3CCN(C(=O)Nc4ccc(OCCO)cc4Cl)CC3)cc2)cc(OC)c1`: 101 to 105 °C; `COc1ccc2c(c1OC)CCN(Cc1ccccc1)Cc1cc3c(cc1C=C2)OCO3`: 129 to 132 °C.
`CC(=O)NC1CCC(=O)c2ccccc21` (stereo not given) had a melting point of 128 to 130 °C.
As for `CN1C(=O)C2C3CCC(CC3)C2(c2ccc(Cl)c(Cl)c2)C1=O` (stereo not given), the figure is 126 to 134 °C; as for `CCOC(=O)C(C(=O)OCC)c1c(Cl)cnc2c([N+](=O)[O-])cccc12`, 102 °C.
Take `CC(C(=O)O)c1ccc2oc(Cc3ccc(F)cc3)nc2c1` (stereo not given): the melting point was in the range of 91 to 93 °C.
As for `CCCCCCCCCCOc1ccc(C(=NO)c2cccc(C(=O)O)c2)cc1CCC(=O)O`, the figure is 163 to 165 °C.
As for `COc1ccc2c(ccc3c4ccc(OC)cc4c(=O)n(-c4ccc(O[Si](C)(C)C(C)(C)C)cc4)c23)c1`, the figure is 211 to 213 °C; as for `Cc1nc(N)nc(N)c1-c1ccc(F)cc1Cl`, 238 °C; as for `O=[N+]([O-])c1cccc2cc(-c3ccccc3)cnc12`, 112 to 114 °C.
As for `O=Cc1cc(Cl)ccc1Sc1ccccc1F`, the figure is 85.5 to 88 °C.
The molecule `CC1(c2ccccc2NC(c2c(Cl)cccc2Cl)C2CC2)OCCO1` (stereo not given) came in with a melting point of 151 °C.
Next, `COc1ccccc1N1CCN(C2(C(=O)c3ccc(Cl)cc3)CC2)CC1`: 103 to 104 °C; `Brc1c(NC2=NCCN2)ccc2ncn(CC3CCCCC3)c12`: 153 to 155 °C; `CCC(SCC(=O)O)c1cc2c(cc1C)OCO2` (stereo not given): 98 to 99 °C.
As to `NS(=O)(=O)c1ccc(CCCCCO)s1`, the melting point was in the range of 65 to 67 °C.
Next, `CC(=O)Nc1cc2c(c(C(=O)O)c1)NCCC2`: 258 to 259 °C.
Next, `CCOC(=O)CC(NC(=O)C1CCCCC1)C(=O)c1ccco1` (stereo not given): 58 to 61 °C; `CCOc1cc(C)ccc1C1CCN(CCCCC(=O)Nc2ccc(-c3ccc(C(F)(F)F)cc3)cc2)CC1`: 178 °C.
Next, `CC(=NOc1cccc(C(F)(F)F)c1)c1cc(Cl)ccc1NS(=O)(=O)C(F)(F)F`: 63 to 64 °C.

In general, melting point refers to the temperature, or range, at which the solid turns liquid.

For the origin of these results see a melting point compilation (Tetko et al.; mined from patent text by program, amines drawn as free bases though some values may be those of a salt).
